Common to all, as to conditions: 10 μM free compound
One experiment deals with GSK3A (Homo sapiens, UniProt P49840). Put plainly: Kinobeads competition binding, HeLa Placenta lysate mix. The arrangement: endogenous in cells. The gist of the method:
(§1)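 Free compound (10 μM) was allowed to bind lysate proteins before affinity beads bearing immobilized compound were added. Bound material, together with that from a DMSO control, was digested and measured by iTRAQ LC-MS/MS.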

For a further experiment, the target named is T1, NEK9 (Homo sapiens, UniProt Q8TD19).
T1 sequence (Q8TD19 1-979): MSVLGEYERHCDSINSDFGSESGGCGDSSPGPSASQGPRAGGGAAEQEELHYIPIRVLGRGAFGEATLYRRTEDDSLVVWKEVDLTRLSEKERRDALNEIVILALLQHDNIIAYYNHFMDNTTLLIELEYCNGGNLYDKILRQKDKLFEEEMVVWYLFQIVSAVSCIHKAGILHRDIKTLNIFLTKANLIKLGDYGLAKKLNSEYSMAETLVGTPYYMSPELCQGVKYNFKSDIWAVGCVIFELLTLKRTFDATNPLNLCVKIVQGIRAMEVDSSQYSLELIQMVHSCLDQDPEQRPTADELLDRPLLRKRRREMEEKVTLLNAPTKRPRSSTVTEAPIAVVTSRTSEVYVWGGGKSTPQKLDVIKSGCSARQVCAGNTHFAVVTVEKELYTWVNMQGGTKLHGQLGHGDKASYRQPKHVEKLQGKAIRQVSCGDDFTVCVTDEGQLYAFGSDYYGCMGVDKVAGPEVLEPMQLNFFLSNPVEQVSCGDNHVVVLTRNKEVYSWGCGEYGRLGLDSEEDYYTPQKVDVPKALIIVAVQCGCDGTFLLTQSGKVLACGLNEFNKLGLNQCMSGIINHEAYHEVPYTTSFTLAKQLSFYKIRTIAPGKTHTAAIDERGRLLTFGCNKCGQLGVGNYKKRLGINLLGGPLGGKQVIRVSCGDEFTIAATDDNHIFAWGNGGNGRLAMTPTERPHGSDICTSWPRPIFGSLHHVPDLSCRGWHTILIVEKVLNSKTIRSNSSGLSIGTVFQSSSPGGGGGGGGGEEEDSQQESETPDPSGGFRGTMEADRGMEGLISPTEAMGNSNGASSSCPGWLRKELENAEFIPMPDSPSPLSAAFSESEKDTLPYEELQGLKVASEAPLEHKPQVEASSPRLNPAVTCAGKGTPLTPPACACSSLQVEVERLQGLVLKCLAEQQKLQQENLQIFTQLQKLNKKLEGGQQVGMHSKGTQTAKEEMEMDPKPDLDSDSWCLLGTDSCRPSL
Described as above. Further details: endogenous in cells. The gist of the method: as §1

A further experiment concerns the target SYK (Homo sapiens, UniProt P43405). In words: Kinobeads competition binding, HL60 cell lysate. The arrangement: capturing and identification of kinases from mixed HeLa placenta lysates; endogenous in cells. The protocol: To one aliquot of cell lysate 10 μM of the free compound (FIG. 3, CZC31326) was added and allowed to bind to proteins in the lysate. Then the affinity matrix with the immobilized compound (Example 1) was added to capture proteins that were not interacting with the previously added free compound. Beads were separated from the lysate and bead bound proteins were eluted in SDS sample buffer and subsequently separated by SDS-Polyacrylamide gel electrophoresis (FIG. 4). Suitable gel bands were cut out and subjected to in-gel proteolytic digestion with trypsin. The second lysate aliquot was processed identically, however no free compound was added (DMSO solvent control). Peptides originating from samples 1 and 2 were labeled with iTRAQ reagents (iTRAQ 114 and iTRAQ 117) and the combined samples were analyzed with a nano-flow liquid chromatography system coupled online to a tandem mass spectrometer (LC-MS/MS) experiment followed by iTRAQ reporter ion quantification in the MS/MS spectra (Ross et al., 2004. Mol. Cell. Proteomics 3(12):1154-1169). […] The iTRAQ reagents are a set of multiplexed, amine-specific, stable isotope reagents that can label peptides on amino groups in up to four different biological samples enabling simultaneous identification and quantitation of peptides. […]

The inhibition is the change of the read-out against control, counted positive when it falls. Read a high inhibition as a response far below the control.

GSK3A, sequence (P49840 whole entry): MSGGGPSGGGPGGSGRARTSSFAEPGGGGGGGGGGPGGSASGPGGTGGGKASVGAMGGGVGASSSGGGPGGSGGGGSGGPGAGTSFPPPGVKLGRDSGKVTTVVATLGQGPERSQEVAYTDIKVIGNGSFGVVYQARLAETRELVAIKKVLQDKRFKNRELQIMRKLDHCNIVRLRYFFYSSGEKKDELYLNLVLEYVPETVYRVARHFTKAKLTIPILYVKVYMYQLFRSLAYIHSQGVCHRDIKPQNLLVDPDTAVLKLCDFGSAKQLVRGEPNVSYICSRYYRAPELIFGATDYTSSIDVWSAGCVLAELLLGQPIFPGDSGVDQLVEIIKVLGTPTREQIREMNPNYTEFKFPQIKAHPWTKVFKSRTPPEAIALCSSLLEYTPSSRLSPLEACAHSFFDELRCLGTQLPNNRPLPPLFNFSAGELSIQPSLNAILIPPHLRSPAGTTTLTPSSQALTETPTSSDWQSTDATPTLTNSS

In the case of `CS(=O)(=O)Nc1ccccc1Nc1nc(Nc2cccc(OCCN)c2)ncc1Cl` [CZC31326, N-(2-(2-(3-(2-aminoethoxy)phenylamino)-5-chloropyrimidin-4-ylamino)phenyl)methanesulfonamide], the figures for the inhibition at 10 µM at GSK3A and on NEK9 were 93.7% and 89%, respectively. Also, the Competition % on SYK was 95.6%.

Source of the values: patent publication US20120270237A9, “METHODS FOR THE IDENTIFICATION OF KINASE INTERACTING MOLECULES AND FOR THE PURIFICATION OF KINASE PROTEINS” (Cellzone AG, priority 2009, published 2012).
